{
  "source": "patent US10342854B2",
  "about": "“Leptin active peptide having cd loop and E helix region mutations, coding gene thereof, and application thereof” (SHANGHAI YUANXIN BIOCHEMICAL SCIENCE AND TECHNOLOGY CO. LTD., priority 2015, dated 2019)",
  "key": {"[1]": {"tested_on": "3T3-L1 preadipocytes", "assay": "MTT lipid-lowering (adipocyte-degrading) activity analysis on 3T3-L1 preadipocyte line", "format": "cell-based", "conditions": "for adipocyte-degrading (adipocyte lysis) activity compared with positive controls H-LEP and Ros: preadipocytes stage, early differentiation stage D0-D2 and mature adipocyte stage D9, PEP-E 10^−6M, Ros 0.5 μM", "description": "Lipid degradation activity of the synthesized leptin active peptide having CD-loop and helix E region mutations is analyzed on a cellular level by taking a 3T3-L1 preadipocyte line as a model. Specific operations are as follows:\na. leptin active peptide having CD-loop and helix E region mutations (PEP-E): diluted to 10^−3M with purified water and preserved at −20 degree C. for later use. After an experiment is started, working concentrations have 3 concentration gradients, that is, 10^−6M, 10−9M and 10^−11M;\nb. positive control 1: H-LEP recombinant human-derived leptin protein (10221-HNAE, Beijing Sino Biological Inc.), diluted to 10^−6M with purified water and preserved at −20 degree C. for later use. After an experiment is started, the working concentration is 10^−9M.\nc. positive control 2: Ros rosiglitazone, R2408, Sigma), diluted to a stock solution with a concentration of 2518 μM with DMSO and preserved at −20 degree C. for later use. After an experiment is started, the stock solution is diluted to a working solution of 0.5 μM with cell culture fluid.\nd. negative control (Control): equivalent quantity of PBS\n(1) inoculating 3T3-L1 preadipocytes in coming cell bind 96-well plates (totally inoculated with 3 plates, respectively plate a, plate b and plate c), wherein the inoculation density is 4500 cells/well; and marking, and standing and culturing at 37 degree C. in a 5% CO2 incubator. Each sample of each plate is operated repeatedly for 3 times, and the whole experiment is repeated for 3 times;\n(2) continuously culturing for 48 hours after the cells are merged to 100% (enabling the cells to exit from a growth cycle, and starting induced differentiation.); and\ni, taking out the plate a, respectively adding different amounts of leptin active peptide having CD-loop and helix E region mutations (PEP-E) to enable the working concentrations to be respectively 3 concentration gradients, that is, 10^−6M, 10^−9M and […], setting 2 positive controls, a negative control (PBS) and a blank control (3 repeated holes are set for each sample), and continuously standing and culturing at 37 degree C. in the 5% CO2 incubator.\nii, when culturing to 45 hours (that is, 3 hours before the end of drug treatment), taking out the plate a, and measuring MTT (preadipocytes). Specific operations: adding 20 μL of 5 mg/mL of MTT solution into each well, continuously standing and culturing at 37 degree C. in the 5% CO2 incubator for 3 hours, sucking and discarding the culture solution in the wells, adding 150 μL of DMSO into each well, horizontally shaking for 10 min, detecting a light absorption value at 492 nm by a microplate reader, and drawing a growth curve. […]\nii, when culturing to 45 hours (that is, 3 hours before the end of drug treatment), taking out the plate b, and measuring MTT (at the early differentiation stage, D0-D2). Specific operations: adding 20 μL of 5 mg/mL of MTT solution into each well; continuously standing and culturing at 37 degree C. in the 5% CO2 incubator for 3 hours, sucking and discarding the culture solution in the wells; adding 150 μL of DMSO into each well, horizontally shaking for 10 min, detecting a light absorption value at 492 nm by a microplate reader, and drawing a growth curve; […]"}, "[2]": {"conditions": "cited from earlier work"}},
  "note": "Entries after “also recorded” stand apart in the source; their conditions may differ.",
  "data": [
    {"substance": "H-LEP: recombinant human-derived leptin protein (10221-HNAE, Beijing Sino Biological Inc.) [reference compound]", "values": [
      {"measurement": "adipocyte lysis activity of positive control vs. negative control", "setting": "[1]; H-LEP 10^−9M, Ros 0.5 μM vs. PBS, P<0.05", "result": "obviously better than that of the negative control"}
    ]},
    {"substance": "SCHLHWAPGLETLDSGVQEASGY (An amino acid sequence of the leptin active peptide having CD-loop and helix E region mutations) [PEP-E]", "values": [
      {"measurement": "dependence of lipid-lowering activity on concentration and cell differentiation period", "setting": "[1]; 10^−6M, 10^−9M, 10^−11M, preadipocytes, D0-D2, D9", "result": "obvious concentration dependence and dependence in a cell differentiation period"},
      {"measurement": "adipocyte-degrading (adipocyte lysis) activity compared with positive controls H-LEP and Ros", "setting": "[1]; 10^−9M, 10^−11M, H-LEP 10^−9M, P<0.05", "result": "obviously better than that of the H-LEP; also recorded: obviously better than that of the Ros"},
      {"measurement": "adipocyte-degrading (adipocyte lysis) activity compared with positive controls H-LEP and Ros", "setting": "[1]; 10^−9M, 10^−11M, H-LEP 10^−9M, P<0.05, listed as leptin active peptide having CD-loop and helix E region mutations", "result": "obviously better than that of positive control-human-derived leptin protein (H-LEP) and a commercially available drug rosiglitazone (Ros,)"},
      {"measurement": "lipid-lowering activity: stage and concentration of optimal effect", "setting": "[1]; three stages, three concentrations compared", "result": "optimal effect at the D0-D2 stage when the concentration is 10^−6M"}
    ]},
    {"substance": "wild type human-derived leptin protein: leptin protein given to obese patients in the first human experiment", "values": [
      {"measurement": "weight loss effect in obese patients", "setting": "[2]; 73 tested obese patients", "result": "most of the patients do not have an obvious weight loss effect"},
      {"measurement": "weight loss", "setting": "[2]; only 2 of 73 patients, within 24 weeks", "result": 35, "unit": "pounds"}
    ]}
  ]
}
